Measured values published in the supplement of paper PMC10307832.

Columns and labels:
Experiment in all cases: relative viability (nuclei count vs DMSO), 5 days (fraction); higher = more cells survive
Venetoclax = compound: CC1(C)CCC(CN2CCN(c3ccc(C(=O)NS(=O)(=O)c4ccc(NCC5CCOCC5)c([N+](=O)[O-])c4)c(Oc4cnc5[nH]ccc5c4)c3)CC2)=C(c2ccc(Cl)cc2)C1 [Venetoclax]
Procedure, shortened: (§1)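 Following overnight incubation at 37 °C, lung cancer cell lines in 1536-well plates were pinned with five library-drug doses (not always all listed) in √10 steps on vehicle-anchored plates. The cells then spent 5 days without medium change before a combined fix, permeabilisation and Hoechst stain, 4× imaging and MetaXpress nuclear counts. Viability is the treated-to-vehicle ratio of nuclei, taken as the median across plates. Only plates with control CV below 25% and at least one doubling passed.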

Selumetinib = compound: Cn1cnc2c(F)c(Nc3ccc(Br)cc3Cl)c(C(=O)NOCCO)cc21 [Selumetinib]
Procedure, shortened: as §1

Venetoclax + Navitoclax = compound: CC1(C)CCC(CN2CCN(c3ccc(C(=O)NS(=O)(=O)c4ccc(NCC5CCOCC5)c([N+](=O)[O-])c4)c(Oc4cnc5[nH]ccc5c4)c3)CC2)=C(c2ccc(Cl)cc2)C1 [Venetoclax] + CC1(C)CCC(c2ccc(Cl)cc2)=C(CN2CCN(c3ccc(C(=O)NS(=O)(=O)c4ccc(N[C@H](CCN5CCOCC5)CSc5ccccc5)c(S(=O)(=O)C(F)(F)F)c4)cc3)CC2)C1 [Navitoclax] (partner 0.5 µM)
Procedure, shortened: (§2)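 Dosing by pin tool came one day after lung cancer cell lines were seeded in 1536-well plates, using either one drug or a fixed anchor-drug dose plus five library-drug doses (not always all listed) in √10 steps. After 5 days, nuclei were counted on 4× images. Relative viability is treated-well nuclei count divided by vehicle-well nuclei count, and values are medians of duplicate plates.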

Venetoclax + Foretinib = compound: CC1(C)CCC(CN2CCN(c3ccc(C(=O)NS(=O)(=O)c4ccc(NCC5CCOCC5)c([N+](=O)[O-])c4)c(Oc4cnc5[nH]ccc5c4)c3)CC2)=C(c2ccc(Cl)cc2)C1 [Venetoclax] + COc1cc2c(Oc3ccc(NC(=O)C4(C(=O)Nc5ccc(F)cc5)CC4)cc3F)ccnc2cc1OCCCN1CCOCC1 [Foretinib] (partner 0.25 µM)
Procedure, shortened: as §2

Row | Cell Line | relative viability (Venetoclax; 0.01 µM) | relative viability (Venetoclax; 0.03162 µM) | relative viability (Venetoclax; 0.1 µM) | relative viability (Venetoclax; 0.3162 µM) | relative viability (Venetoclax; 1 µM) | relative viability (Selumetinib; 0.02 µM) | relative viability (Selumetinib; 0.06325 µM) | relative viability (Selumetinib; 0.2 µM) | relative viability (Selumetinib; 0.6325 µM) | relative viability (Venetoclax + Navitoclax; first compound 0.01 µM) | relative viability (Venetoclax + Navitoclax; first compound 0.03162 µM) | relative viability (Venetoclax + Navitoclax; first compound 0.1 µM) | relative viability (Venetoclax + Navitoclax; first compound 0.3162 µM) | relative viability (Venetoclax + Navitoclax; first compound 1 µM) | relative viability (Venetoclax + Foretinib; first compound 0.01 µM) | relative viability (Venetoclax + Foretinib; first compound 0.03162 µM) | relative viability (Venetoclax + Foretinib; first compound 0.1 µM) | relative viability (Venetoclax + Foretinib; first compound 0.3162 µM) | relative viability (Venetoclax + Foretinib; first compound 1 µM)
1 | LU99A | 1.02 | 1.01 | 0.84 | 0.987 | 0.994 | 1.01 | 1.05 | 0.91 | 0.912 | 0.783 | 0.936 | 0.708 | 0.833 | 0.741 | 0.821 | 0.854 | 0.78 | 0.747 | 0.825
2 | NCI-H1755 | 0.996 | 1.04 | 0.977 | 0.995 | 0.967 | 0.952 | 0.963 | 0.916 | 0.922 | 1.01 | 0.988 | 0.96 | 0.999 | 0.925 | 0.905 | 0.893 | 0.951 | 0.882 | 0.899
3 | LOU-NH91 | 0.969 | 1.09 | 0.942 | 0.954 | 0.925 | 0.935 | 0.884 | 0.899 | 0.901 | 0.594 | 0.832 | 0.676 | 0.77 | 0.659 | 0.895 | 0.969 | 0.97 | 0.94 | 0.911
4 | SK-LU-1 | 0.953 | 1.16 | 0.991 | 1.01 | 1.02 | 1.07 | 0.904 | 0.8 | 0.484 | 0.502 | 0.994 | 0.945 | 0.729 | 0.804 | 0.776 | 0.853 | 0.767 | 0.816 | 0.775
5 | BEN | 1.03 | 1.09 | 0.887 | 0.999 | 0.941 | 0.934 | 1.02 | 0.863 | 0.938 | 0.36 | 0.0558 | 0.072 | 0.0753 | 0.0581 | 0.728 | 0.743 | 0.561 | 0.681 | 0.518
6 | NCI-H1734 | 0.906 | 1.03 | 0.868 | 0.957 | 0.912 | 1 | 0.936 | 0.928 | 0.919 | 0.767 | 1 | 0.78 | 0.811 | 0.787 | 0.88 | 0.871 | 0.794 | 0.823 | 0.878
7 | ChaGo-K-1 | 1.06 | 1.16 | 0.888 | 1.01 | 0.99 | 0.999 | 0.939 | 0.946 | 0.929 | 1.02 | 1.24 |  | 1.09 | 1.06 | 1.02 | 0.944 | 0.889 | 0.916 | 0.949
8 | COR-L 105 | 0.946 | 0.917 | 0.834 | 1.02 | 0.873 | 0.713 | 0.572 | 0.672 | 0.55 | 0.743 | 0.755 | 0.782 | 0.794 | 0.748 | 0.752 | 0.78 | 1.15 | 1 | 0.991
9 | NCI-H2009 | 1.05 | 1.01 | 0.991 | 0.974 | 0.882 | 0.925 | 0.639 | 0.574 | 0.385 | 1.14 | 1.14 | 1.13 | 1.15 | 1.05 | 1.22 | 1.25 | 1.1 | 1.19 | 1.13
10 | Calu-6 | 1.03 | 1.06 | 0.985 | 0.991 | 0.973 | 1.04 | 0.777 | 0.677 | 0.478 | 0.716 | 0.934 | 0.851 | 0.91 | 0.832 | 0.907 | 0.861 | 0.992 | 0.846 | 0.878
11 | NCI-H2023 | 0.932 | 1.05 | 1.05 | 0.953 | 0.859 | 0.987 | 0.841 | 0.862 | 0.758 | 0.984 | 0.987 | 0.924 | 0.96 | 0.86 | 0.813 | 0.924 | 1.14 | 0.84 | 0.653
12 | SW 1573 | 0.974 | 0.985 | 0.911 | 0.969 | 0.877 | 0.882 | 0.814 | 0.754 | 0.833 | 0.877 | 1.02 | 0.971 | 1.03 | 0.997 | 0.943 | 0.974 | 0.811 | 0.781 | 0.828
13 | NCI-H2405 | 1.03 | 1.14 | 0.978 | 0.996 | 0.914 | 1.02 | 0.923 | 0.861 | 0.686 | 0.865 | 1.02 |  | 0.941 | 0.91 | 1.03 | 1.08 | 1.01 | 0.999 | 1.04
14 | EMC-BAC-2 | 0.977 | 1.14 | 0.945 | 1.15 | 0.96 | 1.38 | 1.16 | 1.06 | 1.13 | 1.09 | 1.17 | 1.14 | 1.15 | 1.07 | 0.994 | 1.03 | 1.12 | 0.986 | 0.978
15 | NCI-H322M | 1.05 | 0.982 | 0.899 | 1.06 | 0.938 | 0.83 | 0.681 | 0.651 | 0.624 | 1.25 | 1.11 | 1.11 | 1.35 | 1.16 | 0.939 | 1 | 0.915 | 0.972 | 1.05
16 | NCI-H1944 | 1.14 | 0.937 | 0.951 | 1.05 | 0.891 | 0.946 | 0.791 | 0.673 | 0.643 | 1.03 | 1.09 | 0.99 | 1.06 | 1.09 | 1.06 | 0.904 | 0.847 | 0.911 | 0.912
